# PMC2774722 (Clinical cancer research : an official journal of the …, 2009)
# Where “and” joins values, the source holds several entries; their conditions need not be identical. Equal values may be shown once. Read-outs that look alike come from different tables or passages of the source.
# How the values were obtained:
# ABCC2 [1] = target: T1, ABCC2 (Homo sapiens, UniProt Q92887); test: Inhibition of ABCC2-mediated docetaxel efflux; format: cell-based; conditions: for Inhibition of docetaxel efflux: 20 μM sorafenib or sunitinib, or 50 μM MK571, 5 μM docetaxel, 4 h, cells overexpressing ABCC2
# T1 sequence (Q92887 whole entry): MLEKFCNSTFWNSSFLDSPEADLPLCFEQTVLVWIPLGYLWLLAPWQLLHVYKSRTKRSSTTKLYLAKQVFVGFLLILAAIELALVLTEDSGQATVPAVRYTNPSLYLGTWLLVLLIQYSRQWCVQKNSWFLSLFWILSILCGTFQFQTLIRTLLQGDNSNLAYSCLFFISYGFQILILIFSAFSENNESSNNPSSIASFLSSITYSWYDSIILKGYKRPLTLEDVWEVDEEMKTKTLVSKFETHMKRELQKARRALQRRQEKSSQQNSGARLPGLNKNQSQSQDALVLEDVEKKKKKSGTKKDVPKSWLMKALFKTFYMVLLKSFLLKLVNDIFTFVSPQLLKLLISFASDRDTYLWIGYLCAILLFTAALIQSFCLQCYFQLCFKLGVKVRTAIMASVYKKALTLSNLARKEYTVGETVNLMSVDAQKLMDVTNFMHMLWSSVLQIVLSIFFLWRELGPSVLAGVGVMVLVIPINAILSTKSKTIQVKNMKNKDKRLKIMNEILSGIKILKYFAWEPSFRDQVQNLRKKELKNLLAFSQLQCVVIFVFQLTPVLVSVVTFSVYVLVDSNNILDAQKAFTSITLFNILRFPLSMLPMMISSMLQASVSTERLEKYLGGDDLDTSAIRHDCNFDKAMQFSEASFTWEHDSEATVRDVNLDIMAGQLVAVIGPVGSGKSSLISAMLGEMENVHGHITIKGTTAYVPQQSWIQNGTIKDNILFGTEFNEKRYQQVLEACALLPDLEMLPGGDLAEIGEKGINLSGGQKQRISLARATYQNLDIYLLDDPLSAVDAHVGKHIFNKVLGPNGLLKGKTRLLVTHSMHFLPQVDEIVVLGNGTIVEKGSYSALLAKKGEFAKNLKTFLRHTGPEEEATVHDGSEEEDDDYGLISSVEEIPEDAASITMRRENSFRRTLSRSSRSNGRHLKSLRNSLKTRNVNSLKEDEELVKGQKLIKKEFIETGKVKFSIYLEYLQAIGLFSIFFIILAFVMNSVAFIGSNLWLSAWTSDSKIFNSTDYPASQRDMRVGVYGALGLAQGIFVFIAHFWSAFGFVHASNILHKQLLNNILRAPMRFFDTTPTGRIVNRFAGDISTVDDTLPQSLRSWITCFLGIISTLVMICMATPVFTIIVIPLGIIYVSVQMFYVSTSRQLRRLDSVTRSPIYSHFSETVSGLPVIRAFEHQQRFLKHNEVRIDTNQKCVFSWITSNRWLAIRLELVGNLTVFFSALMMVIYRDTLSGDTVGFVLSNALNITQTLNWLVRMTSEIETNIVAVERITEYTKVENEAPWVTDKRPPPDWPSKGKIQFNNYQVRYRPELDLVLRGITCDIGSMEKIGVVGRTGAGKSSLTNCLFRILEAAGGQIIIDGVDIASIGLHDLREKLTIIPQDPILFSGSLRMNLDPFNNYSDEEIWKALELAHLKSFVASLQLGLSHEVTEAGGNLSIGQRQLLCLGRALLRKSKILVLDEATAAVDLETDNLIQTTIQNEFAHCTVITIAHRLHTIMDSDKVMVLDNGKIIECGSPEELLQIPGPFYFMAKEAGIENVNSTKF
# ABCC4 [2] = target: T2, ABCC4 (Homo sapiens, UniProt O15439); test: Inhibition of ABCC4-mediated PMEA efflux in Saos-2 cells; format: cell-based; conditions: for Inhibition of PMEA efflux: 20 μM sorafenib or sunitinib, or 50 μM MK571, 4 h, cells overexpressing ABCC4
# T2 sequence (O15439 1-1325): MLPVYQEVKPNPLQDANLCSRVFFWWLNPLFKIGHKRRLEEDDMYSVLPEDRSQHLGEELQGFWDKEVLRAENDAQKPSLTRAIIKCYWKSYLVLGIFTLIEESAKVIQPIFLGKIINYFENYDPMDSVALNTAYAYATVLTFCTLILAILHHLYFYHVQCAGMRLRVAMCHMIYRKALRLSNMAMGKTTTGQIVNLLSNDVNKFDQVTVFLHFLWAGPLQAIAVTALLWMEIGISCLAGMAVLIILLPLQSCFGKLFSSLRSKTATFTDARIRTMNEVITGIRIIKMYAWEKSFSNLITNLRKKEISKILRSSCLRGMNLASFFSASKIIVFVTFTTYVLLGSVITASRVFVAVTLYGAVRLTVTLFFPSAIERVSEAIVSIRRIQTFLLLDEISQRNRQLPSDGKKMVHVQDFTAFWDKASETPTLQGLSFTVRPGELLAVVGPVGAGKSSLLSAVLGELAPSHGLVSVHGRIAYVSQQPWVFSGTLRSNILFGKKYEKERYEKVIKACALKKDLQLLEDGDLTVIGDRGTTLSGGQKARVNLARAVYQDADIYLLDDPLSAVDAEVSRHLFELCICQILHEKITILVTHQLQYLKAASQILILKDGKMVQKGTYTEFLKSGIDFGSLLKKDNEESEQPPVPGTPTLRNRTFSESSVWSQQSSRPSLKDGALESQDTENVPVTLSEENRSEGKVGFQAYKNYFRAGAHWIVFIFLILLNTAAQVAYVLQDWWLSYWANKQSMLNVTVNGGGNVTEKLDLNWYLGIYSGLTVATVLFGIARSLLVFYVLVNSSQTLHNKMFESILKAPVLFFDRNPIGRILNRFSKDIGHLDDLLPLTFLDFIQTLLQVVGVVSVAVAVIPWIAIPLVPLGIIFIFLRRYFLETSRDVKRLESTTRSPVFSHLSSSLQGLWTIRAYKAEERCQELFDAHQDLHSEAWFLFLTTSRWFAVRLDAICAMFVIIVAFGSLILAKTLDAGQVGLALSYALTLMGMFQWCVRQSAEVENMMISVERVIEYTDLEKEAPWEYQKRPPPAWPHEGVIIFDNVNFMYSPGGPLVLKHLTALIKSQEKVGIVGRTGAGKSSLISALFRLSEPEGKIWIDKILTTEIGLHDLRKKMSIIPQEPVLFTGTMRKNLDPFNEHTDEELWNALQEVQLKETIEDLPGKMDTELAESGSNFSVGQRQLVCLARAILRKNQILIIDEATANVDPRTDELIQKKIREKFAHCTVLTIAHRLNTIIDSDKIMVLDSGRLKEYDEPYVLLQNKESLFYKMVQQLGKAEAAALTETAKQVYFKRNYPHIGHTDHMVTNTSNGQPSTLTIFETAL
# [3] = ref [39], cited from earlier work
# [4] = wild-type murine models, cited from earlier work
# Abcb1 [5] = conditions: mice lacking ABCB1; ref [42]; cited from earlier work
# CYP3a = conditions: CYP3a-/- knockout mice; ref [43]; cited from earlier work
# ABCB1 or ABCC2 = conditions: mice lacking one or both transporters (ABCB1, ABCC2); ref [40]; cited from earlier work
# Abcb1 [6] = conditions: Abcb1 knockout mice; ref [6], [44]; cited from earlier work
# Abcb1 and Abcg2 = conditions: mice lacking both Abcb1 and Abcg2; ref [6], [44]; cited from earlier work
# ABCC2 [7] = target: T1, ABCC2; test: Accumulation in MDCKII cells overexpressing ABCC2; format: in vitro ADME; conditions: 1 μM, 4 h
# [8] = tested on: OATP1A2, OATP1B1, OATP1B3, OCT1, OAT2, OCTN1 and OCTN2; conditions: oocytes or HEK293 cells; sorafenib 0.35-1.5 μM or sunitinib 0.15-0.45 μM, 1 h
# Abcb1 [9] = conditions: brain concentration at 4 h / plasma AUC0-4h; oral sorafenib 40 mg/kg or sunitinib 20 mg/kg
# ABCC4 [10] = target: T2, ABCC4; test: Accumulation in Saos-2 cells overexpressing ABCC4; format: in vitro ADME; conditions: 1 μM, 4 h
# ABCG2 [11] = target: ABCG2 (Homo sapiens, UniProt Q9UNQ0); conditions: 1 μM, 4 h, Saos-2 cells
# Chain of ABCG2 (Homo sapiens, UniProt Q9UNQ0) (Q9UNQ0 whole entry): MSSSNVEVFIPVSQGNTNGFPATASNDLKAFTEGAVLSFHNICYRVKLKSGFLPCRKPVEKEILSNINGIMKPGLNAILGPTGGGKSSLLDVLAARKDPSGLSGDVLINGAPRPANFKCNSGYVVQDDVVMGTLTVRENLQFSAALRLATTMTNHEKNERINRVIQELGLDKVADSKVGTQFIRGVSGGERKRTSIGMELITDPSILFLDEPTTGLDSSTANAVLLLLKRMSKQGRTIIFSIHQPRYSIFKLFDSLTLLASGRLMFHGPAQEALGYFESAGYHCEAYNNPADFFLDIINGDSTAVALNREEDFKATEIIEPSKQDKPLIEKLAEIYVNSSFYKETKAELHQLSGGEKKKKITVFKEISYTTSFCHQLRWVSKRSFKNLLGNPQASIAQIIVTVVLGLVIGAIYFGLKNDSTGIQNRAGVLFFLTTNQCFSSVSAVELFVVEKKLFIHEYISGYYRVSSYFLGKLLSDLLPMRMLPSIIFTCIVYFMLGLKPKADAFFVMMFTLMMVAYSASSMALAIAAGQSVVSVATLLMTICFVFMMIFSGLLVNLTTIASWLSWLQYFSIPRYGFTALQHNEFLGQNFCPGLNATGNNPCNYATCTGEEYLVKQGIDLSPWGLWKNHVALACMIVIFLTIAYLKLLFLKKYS
# ABCB1 [12] = target: T3, ABCB1 (Homo sapiens, UniProt P08183); test: Inhibition of calcein-AM efflux in LLC-PK1 cells expressing ABCB1; format: cell-based
# T3 sequence (P08183 whole entry): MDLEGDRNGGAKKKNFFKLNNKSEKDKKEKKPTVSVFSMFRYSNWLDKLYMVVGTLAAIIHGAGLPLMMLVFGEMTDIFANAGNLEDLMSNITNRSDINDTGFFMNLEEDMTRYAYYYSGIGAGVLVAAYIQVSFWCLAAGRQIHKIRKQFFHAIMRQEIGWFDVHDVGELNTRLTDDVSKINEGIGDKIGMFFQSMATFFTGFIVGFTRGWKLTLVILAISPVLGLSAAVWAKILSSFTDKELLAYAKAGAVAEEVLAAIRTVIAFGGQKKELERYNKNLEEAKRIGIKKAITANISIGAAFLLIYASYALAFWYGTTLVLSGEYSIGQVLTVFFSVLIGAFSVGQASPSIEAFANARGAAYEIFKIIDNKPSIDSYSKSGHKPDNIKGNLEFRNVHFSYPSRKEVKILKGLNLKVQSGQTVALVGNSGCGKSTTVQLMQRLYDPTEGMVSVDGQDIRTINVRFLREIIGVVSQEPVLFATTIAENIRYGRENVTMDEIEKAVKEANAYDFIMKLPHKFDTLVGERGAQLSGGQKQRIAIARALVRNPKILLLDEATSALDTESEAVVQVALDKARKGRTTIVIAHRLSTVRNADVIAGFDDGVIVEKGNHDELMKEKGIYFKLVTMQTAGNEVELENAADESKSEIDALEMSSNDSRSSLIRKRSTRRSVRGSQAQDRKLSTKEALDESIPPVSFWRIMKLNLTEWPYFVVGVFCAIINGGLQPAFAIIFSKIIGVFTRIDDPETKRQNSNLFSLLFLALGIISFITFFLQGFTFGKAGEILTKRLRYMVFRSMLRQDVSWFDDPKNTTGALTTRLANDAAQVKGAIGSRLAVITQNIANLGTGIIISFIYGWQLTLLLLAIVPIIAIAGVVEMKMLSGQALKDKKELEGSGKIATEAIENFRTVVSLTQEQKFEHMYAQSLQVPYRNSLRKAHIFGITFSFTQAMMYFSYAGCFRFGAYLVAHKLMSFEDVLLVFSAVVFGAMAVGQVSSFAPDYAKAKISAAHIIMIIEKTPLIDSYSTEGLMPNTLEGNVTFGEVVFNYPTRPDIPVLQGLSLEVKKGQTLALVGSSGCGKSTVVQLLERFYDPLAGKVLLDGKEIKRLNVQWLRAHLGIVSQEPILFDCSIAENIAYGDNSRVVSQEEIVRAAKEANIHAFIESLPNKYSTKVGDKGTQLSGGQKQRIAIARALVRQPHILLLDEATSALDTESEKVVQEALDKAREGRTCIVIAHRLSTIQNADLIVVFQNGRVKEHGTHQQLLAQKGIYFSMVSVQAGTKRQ
# ABCB1 [13] = target: T3, ABCB1; test: Transcellular transport in LLC-PK1 cells expressing ABCB1; format: in vitro ADME; conditions: 10 μM, LLC-PK1 cells overexpressing ABCB1
# Abcb1 [14] = conditions: single oral dose, sorafenib 40 mg/kg or sunitinib 20 mg/kg
# [15] = tested on: acute myelogenous leukemia; conditions: sorafenib with cytarabine/idarubicin, cited from earlier work
# [16] = Brain penetration and brain concentration in mice; format: in vivo
# ABCC2 [17] = target: T1, ABCC2; test: Vanadate sensitive ATPase assay of ABCC2 in membrane vesicles; format: biochemical; conditions: activation test, 0.14-300 μM, 10 min, concentration dependent
# ABCB1 [18] = conditions: ref [38]; cited from earlier work
# ABCG2 [19] = conditions: ref [38]; cited from earlier work
# OCTN2 = target: T4, OCTN2 (Homo sapiens, UniProt O76082); test: Uptake in HEK293 cells overexpressing OCTN2; format: in vitro ADME; conditions: HEK293 cells expressing OCTN2, 1 h
# T4 sequence (O76082 1-557): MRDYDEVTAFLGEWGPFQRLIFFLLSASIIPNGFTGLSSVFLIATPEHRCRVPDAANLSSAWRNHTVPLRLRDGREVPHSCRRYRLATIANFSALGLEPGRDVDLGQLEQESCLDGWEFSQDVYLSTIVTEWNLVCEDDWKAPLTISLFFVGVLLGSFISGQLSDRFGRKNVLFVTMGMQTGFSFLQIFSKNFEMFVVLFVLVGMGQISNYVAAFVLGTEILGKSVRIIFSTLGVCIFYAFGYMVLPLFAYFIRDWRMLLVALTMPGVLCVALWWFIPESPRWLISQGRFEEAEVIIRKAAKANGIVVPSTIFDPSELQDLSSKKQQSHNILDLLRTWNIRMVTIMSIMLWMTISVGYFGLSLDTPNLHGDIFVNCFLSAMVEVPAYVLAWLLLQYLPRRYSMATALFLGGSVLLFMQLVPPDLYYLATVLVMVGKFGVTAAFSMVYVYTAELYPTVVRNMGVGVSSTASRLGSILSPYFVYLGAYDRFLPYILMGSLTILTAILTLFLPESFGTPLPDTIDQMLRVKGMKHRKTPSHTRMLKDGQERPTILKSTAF
# [20] = 38 patients with newly diagnosed AML
structure (smiles),measurement,setting,value
CN(C)C(=O)CCSC(SCCC(=O)O)c1cccc(/C=C/c2ccc3ccc(Cl)cc3n2)c1 (stereo not drawn) [MK571],Inhibition of docetaxel efflux,ABCC2 [1],approximately 90%
same,Inhibition of PMEA efflux,ABCC4 [2],~100%
CCc1c2c(nc3ccc(O)cc13)-c1cc3c(c(=O)n1C2)COC(=O)[C@]3(O)CC [SN-38],Change in plasma exposure when co-administered with sorafenib,[3],minimal to no increases
Cc1nc(Nc2ncc(C(=O)Nc3c(C)cccc3Cl)s2)cc(N2CCN(CCO)CC2)n1 [dasatinib],Brain penetration,[4]; ref [45],3-8%
CC(=O)O[C@@]12CO[C@@H]1C[C@H](O)[C@@]1(C)C(=O)[C@H](O)C3=C(C)[C@@H](OC(=O)[C@H](O)[C@@H](NC(=O)OC(C)(C)C)c4ccccc4)C[C@@](O)([C@@H](OC(=O)c4ccccc4)[C@H]21)C3(C)C [docetaxel],Plasma exposure compared to wild-type mice,Abcb1 [5],unchanged
same,Exposure compared to wild-type counterparts,CYP3a,significanty increased
COc1cccc2c1C(=O)c1c(O)c3c(c(O)c1C2=O)C[C@@](O)(C(=O)CO)C[C@@H]3O[C@H]1C[C@H](N)[C@H](O)[C@H](C)O1 [doxorubicin],Increase in plasma exposure in combination with sorafenib,[3]; phase I trial,20-30%
same,Plasma exposure compared to wild-type mice,ABCB1 or ABCC2,unaltered
Cc1ccc(NC(=O)c2ccc(CN3CCN(C)CC3)cc2)cc1Nc1nccc(-c2cccnc2)n1 [imatinib],Brain penetration,"[4]; ref [6], [44]",2-10%
same,Increase in brain penetration compared to wild-type mice,Abcb1 [6],3.6 fold
same,Increase in brain penetration compared to wild-type mice,Abcb1 and Abcg2,12.6 fold
CCc1c2c(nc3ccc(OC(=O)N4CCC(N5CCCCC5)CC4)cc13)-c1cc3c(c(=O)n1C2)COC(=O)[C@]3(O)CC [irinotecan],Change in plasma exposure when co-administered with sorafenib,[3],minimal to no increases
CNC(=O)c1cc(Oc2ccc(NC(=O)Nc3ccc(Cl)c(C(F)(F)F)c3)cc2)ccn1 [sorafenib],Transport by ABCC2,ABCC2 [7],not transported
same,Transport (uptake) by solute carriers compared to control,[8],none of the transporters tested facilitated
same,Increase in brain penetration in knockout animals versus controls,Abcb1 [9],1.9 fold
same,Transport by ABCC4,ABCC4 [10],not transported
same,Transport by ABCG2,ABCG2 [11],not transported
same,inhibition at 20 µM,ABCC2 [1]; read-out: Inhibition of docetaxel efflux,~50%
same,IC50,ABCB1 [12],16.6 µM
same,Transport by ABCB1,ABCB1 [13],not transported
same,"Plasma AUC0-4h, wild type versus Abcb1 knockout mice",Abcb1 [14],not significantly different
same,Overall response rate,[15]; [20],83%
same,Patients achieving a complete response,[15]; [20],70%
same,Probability of survival,[15]; at 9 months follow-up,82%
same,Remission duration,[15]; at 9 months follow-up,72%
same,concentration at 4 h,"[16]; FVB, mouse, brain, po, 40 mg/kg",~300 ng/mL and 645 nM
same,Brain penetration,"[16]; wild-type mice, brain concentration at 4 h / plasma AUC0-4h, oral sorafenib 40 mg/kg or sunitinib 20 mg/kg",3%
same,Effect on baseline ATPase activity of ABCC2,ABCC2 [17],inhibited
same,inhibition at 20 µM,"ABCC4 [2]; SAOS-2, read-out: Inhibition of PMEA efflux",~70%
CCN(CC)CCNC(=O)c1c(C)[nH]c(/C=C2\C(=O)Nc3ccc(F)cc32)c1C [sunitinib],Reversal of ABCB1-mediated resistance to romidepsin,ABCB1 [18],partially reverse
same,Transport (uptake) by solute carriers compared to control,[8],none of the transporters tested facilitated
same,Increase in brain penetration in knockout animals versus controls,Abcb1 [9],2.9 fold
same,Transport by ABCG2,ABCG2 [11],not transported
same,Reversal of topotecan resistance mediated by ABCG2,ABCG2 [19],completely reverse
same,Inhibition of docetaxel efflux,ABCC2 [1],~80%
same,Transport by ABCB1,ABCB1 [13],substantially reduced
same,"Plasma AUC0-4h, wild type versus Abcb1 knockout mice",Abcb1 [14],not significantly different
same,Transport over control by OCTN2,OCTN2,130%
same,Inhibition of PMEA efflux,ABCC4 [2],~80%
